Measured values: ChEMBL document CHEMBL1201862, “PubChem BioAssay data set” (2004)
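Values below derive from 48-hour exposures of cells grown in 96-well plates, with endpoints linearly interpolated between the two concentrations bracketing the appropriate inhibition level. Here, GI50 denotes the concentration required for 50% inhibition of growth.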 Calls of active or inactive are those of the source. No stated cut-off is given here; in the data, active = GI50 up to about 1.1 µM and inactive = higher.

Experiments:
Assay in all cases: inhibition of tumour cell growth, NCI panel, 48 h
OVCAR-8 = test system: OVCAR-8
U-251 = test system: U-251
RPMI-8226 = test system: RPMI-8226
TK-10 = test system: TK-10
SK-OV-3 = test system: SK-OV-3
SF-295 = test system: SF-295
RXF 631 = test system: RXF 631
NCI-H226 = test system: NCI-H226
UO-31 = test system: UO-31
HOP-92 = test system: HOP-92
OVCAR-5 = test system: OVCAR-5
OVCAR-3 = test system: OVCAR-3
ACHN = test system: ACHN
IGROV-1 = test system: IGROV-1
SNB-78 = test system: SNB-78
HOP-18 = test system: HOP-18
NCI-H460 = test system: NCI-H460
LOX IMVI = test system: LOX IMVI
XF498 = test system: XF498
SF-539 = test system: SF-539
K562 = test system: K562
SK-MEL-28 = test system: SK-MEL-28
A549 = test system: A549
HL-60 = test system: HL-60
NCI-H23 = test system: NCI-H23
SR = test system: SR
HT-29 = test system: HT-29
RXF 393 = test system: RXF 393
LXFL 529 = test system: LXFL 529
MOLT-4 = test system: MOLT-4
HCC 2998 = test system: HCC 2998
DMS-114 = test system: DMS-114
NCI-H522 = test system: NCI-H522
HCT-116 = test system: HCT-116
SW-620 = test system: SW-620
M14 = test system: M14
EKVX = test system: EKVX
Malme-3M = test system: Malme-3M
DLD-1 = test system: DLD-1
786-0 = test system: 786-0
UACC-257 = test system: UACC-257
M19-MEL = test system: M19-MEL
SN12C = test system: SN12C
SK-MEL-5 = test system: SK-MEL-5
HOP-62 = test system: HOP-62
COLO 205 = test system: COLO 205
DMS-273 = test system: DMS-273
KM12 = test system: KM12
KM-20L2 = test system: KM-20L2
SNB-75 = test system: SNB-75
SK-MEL-2 = test system: SK-MEL-2
UACC-62 = test system: UACC-62
SF-268 = test system: SF-268
CAKI-1 = test system: CAKI-1
SNB-19 = test system: SNB-19
HCT-15 = test system: HCT-15
OVCAR-4 = test system: OVCAR-4
A498 = test system: A498
CCRF-CEM = test system: CCRF-CEM

For `CC(C)OCN/C(N)=N\C#N`, the GI50 (OVCAR-8) was > 100 µM (inactive), the GI50 (U-251) was > 100 µM (inactive) and the GI50 (RPMI-8226) was 24 µM (inactive). For the same molecule, the GI50 (TK-10) was > 100 µM (inactive), the GI50 (SK-OV-3) was > 100 µM (inactive) and the GI50 (SF-295) was > 100 µM (inactive). The GI50 (RXF 631) was > 100 µM (inactive), the GI50 (NCI-H226) was > 100 µM (inactive) and the GI50 (UO-31) was > 100 µM (inactive). For the same molecule, the GI50 (HOP-92) was > 100 µM (inactive), the GI50 (OVCAR-5) was > 100 µM (inactive) and the GI50 (OVCAR-3) was > 100 µM (inactive). For the same molecule, the GI50 (ACHN) was > 100 µM (inactive), the GI50 (IGROV-1) was > 100 µM (inactive) and the GI50 (SNB-78) was > 100 µM (inactive). The GI50 (HOP-18) was > 100 µM (inactive), the GI50 (NCI-H460) was > 100 µM (inactive) and the GI50 (LOX IMVI) was 20.5 µM (inactive). The GI50 (XF498) was > 100 µM (inactive), the GI50 (SF-539) was > 100 µM (inactive) and the GI50 (K562) was > 100 µM (inactive). The GI50 (SK-MEL-28) was > 100 µM (inactive), the GI50 (A549) was > 100 µM (inactive) and the GI50 (HL-60) was > 100 µM (inactive). The GI50 (NCI-H23) was > 100 µM (inactive), the GI50 (SR) was 10.8 µM (inactive) and the GI50 (HT-29) was 43.8 µM (inactive). The GI50 (RXF 393) was 46.1 µM (inactive), the GI50 (LXFL 529) was > 100 µM (inactive) and the GI50 (MOLT-4) was > 100 µM (inactive). The GI50 (HCC 2998) was > 100 µM (inactive), the GI50 (DMS-114) was > 100 µM (inactive) and the GI50 (NCI-H522) was > 100 µM (inactive). The GI50 (HCT-116) was > 100 µM (inactive), the GI50 (SW-620) was 17 µM (inactive) and the GI50 (M14) was > 100 µM (inactive). The GI50 (EKVX) was > 100 µM (inactive), the GI50 (Malme-3M) was > 100 µM (inactive) and the GI50 (DLD-1) was 59.7 µM (inactive). For the same molecule, the GI50 (786-0) was 82.4 µM (inactive), the GI50 (UACC-257) was > 100 µM (inactive) and the GI50 (M19-MEL) was > 100 µM (inactive). The GI50 (SN12C) was > 100 µM (inactive), the GI50 (SK-MEL-5) was > 100 µM (inactive) and the GI50 (HOP-62) was > 100 µM (inactive). For the same molecule, the GI50 (COLO 205) was 29.1 µM (inactive), the GI50 (DMS-273) was 49.2 µM (inactive) and the GI50 (KM12) was > 100 µM (inactive). For the same molecule, the GI50 (KM-20L2) was > 100 µM (inactive), the GI50 (SNB-75) was > 100 µM (inactive) and the GI50 (SK-MEL-2) was > 100 µM (inactive). For the same molecule, the GI50 (UACC-62) was > 100 µM (inactive), the GI50 (SF-268) was > 100 µM (inactive) and the GI50 (CAKI-1) was > 100 µM (inactive). The GI50 (SNB-19) was > 100 µM (inactive), the GI50 (HCT-15) was 17.5 µM and the GI50 (OVCAR-4) was > 100 µM (inactive). The GI50 (A498) was > 100 µM (inactive).
For `COc1ccc(/C=C/c2cc(OC)c(OC)c(OC)c2)cc1OC`, the GI50 (OVCAR-8) was > 100 µM (inactive), the GI50 (U-251) was > 100 µM (inactive) and the GI50 (RPMI-8226) was > 100 µM (inactive). For the same molecule, the GI50 (TK-10) was > 100 µM (inactive), the GI50 (SK-OV-3) was > 100 µM (inactive) and the GI50 (SF-295) was 65.2 µM (inactive). The GI50 (RXF 631) was > 100 µM (inactive), the GI50 (NCI-H226) was > 100 µM (inactive) and the GI50 (UO-31) was > 92.7 µM (inactive). For the same molecule, the GI50 (HOP-92) was 80.5 µM (inactive), the GI50 (OVCAR-5) was > 100 µM (inactive) and the GI50 (OVCAR-3) was > 100 µM (inactive). The GI50 (ACHN) was > 100 µM (inactive), the GI50 (CCRF-CEM) was > 100 µM (inactive) and the GI50 (IGROV-1) was > 100 µM (inactive). The GI50 (SNB-78) was 36.1 µM (inactive), the GI50 (HOP-18) was > 100 µM (inactive) and the GI50 (NCI-H460) was > 100 µM (inactive). The GI50 (LOX IMVI) was > 100 µM (inactive), the GI50 (XF498) was 77.8 µM (inactive) and the GI50 (SF-539) was > 86.1 µM (inactive). The GI50 (K562) was > 100 µM (inactive), the GI50 (SK-MEL-28) was 55.6 µM (inactive) and the GI50 (A549) was > 100 µM (inactive). For the same molecule, the GI50 (HL-60) was > 70.3 µM (inactive), the GI50 (NCI-H23) was > 100 µM (inactive) and the GI50 (SR) was > 100 µM (inactive). The GI50 (HT-29) was > 72.8 µM (inactive), the GI50 (RXF 393) was > 63 µM (inactive) and the GI50 (LXFL 529) was 78.9 µM (inactive). For the same molecule, the GI50 (MOLT-4) was > 100 µM (inactive), the GI50 (HCC 2998) was > 100 µM (inactive) and the GI50 (DMS-114) was > 100 µM (inactive). For the same molecule, the GI50 (NCI-H522) was 68.5 µM (inactive), the GI50 (HCT-116) was > 100 µM (inactive) and the GI50 (SW-620) was > 100 µM (inactive). The GI50 (M14) was > 100 µM (inactive), the GI50 (EKVX) was > 100 µM (inactive) and the GI50 (Malme-3M) was > 100 µM (inactive). The GI50 (DLD-1) was 81.5 µM (inactive), the GI50 (786-0) was > 76.9 µM (inactive) and the GI50 (UACC-257) was > 100 µM (inactive). The GI50 (SN12C) was > 100 µM (inactive), the GI50 (SK-MEL-5) was > 74.5 µM (inactive) and the GI50 (HOP-62) was 44 µM (inactive). The GI50 (COLO 205) was > 100 µM (inactive), the GI50 (DMS-273) was > 82.2 µM (inactive) and the GI50 (KM12) was > 100 µM (inactive). For the same molecule, the GI50 (KM-20L2) was > 100 µM (inactive), the GI50 (SNB-75) was > 44.3 µM (inactive) and the GI50 (SK-MEL-2) was > 100 µM (inactive). The GI50 (UACC-62) was > 80.7 µM (inactive), the GI50 (SF-268) was > 67.9 µM (inactive) and the GI50 (CAKI-1) was > 83.6 µM (inactive). For the same molecule, the GI50 (SNB-19) was > 100 µM (inactive), the GI50 (HCT-15) was > 56.2 µM and the GI50 (OVCAR-4) was > 100 µM (inactive). The GI50 (A498) was > 74.1 µM (inactive).
`C[n+]1c2ccccc2c(NC(CS)C(=O)O)c2ccccc21` (configuration not stated) was tested, and the GI50 (OVCAR-8) was 19.4 µM (inactive), the GI50 (U-251) was 24.5 µM (inactive) and the GI50 (RPMI-8226) was 18.6 µM (inactive). The GI50 (TK-10) was 36.6 µM (inactive), the GI50 (SK-OV-3) was 23.3 µM (inactive) and the GI50 (SF-295) was 19.9 µM (inactive). The GI50 (RXF 631) was 37.2 µM (inactive), the GI50 (NCI-H226) was 45 µM (inactive) and the GI50 (UO-31) was 16.2 µM (inactive). For the same molecule, the GI50 (HOP-92) was 20.2 µM (inactive), the GI50 (OVCAR-5) was 74.1 µM (inactive) and the GI50 (OVCAR-3) was 17.7 µM (inactive). The GI50 (ACHN) was 36.5 µM (inactive), the GI50 (IGROV-1) was 25.4 µM (inactive) and the GI50 (SNB-78) was 45.2 µM (inactive). The GI50 (HOP-18) was 12 µM (inactive), the GI50 (NCI-H460) was 29.8 µM (inactive) and the GI50 (XF498) was 18.4 µM (inactive). For the same molecule, the GI50 (SF-539) was 20.7 µM (inactive), the GI50 (K562) was 28.6 µM (inactive) and the GI50 (A549) was 22.6 µM (inactive). The GI50 (HL-60) was 17.6 µM (inactive), the GI50 (NCI-H23) was 32 µM (inactive) and the GI50 (SR) was 16.4 µM (inactive). The GI50 (HT-29) was 28.9 µM (inactive), the GI50 (RXF 393) was 22.3 µM (inactive) and the GI50 (LXFL 529) was 20.4 µM (inactive). For the same molecule, the GI50 (MOLT-4) was 13.8 µM (inactive), the GI50 (HCC 2998) was 32.9 µM (inactive) and the GI50 (DMS-114) was 29.2 µM (inactive). The GI50 (NCI-H522) was 20.3 µM (inactive), the GI50 (HCT-116) was 13.5 µM (inactive) and the GI50 (SW-620) was 39.3 µM (inactive). The GI50 (M14) was 27.5 µM (inactive), the GI50 (EKVX) was 24.4 µM (inactive) and the GI50 (Malme-3M) was 24.2 µM (inactive). For the same molecule, the GI50 (DLD-1) was 23.1 µM (inactive), the GI50 (786-0) was 24 µM (inactive) and the GI50 (UACC-257) was 33.7 µM (inactive). The GI50 (M19-MEL) was 27.4 µM (inactive), the GI50 (SN12C) was 52 µM (inactive) and the GI50 (SK-MEL-5) was 17.3 µM (inactive). For the same molecule, the GI50 (HOP-62) was 30.3 µM (inactive), the GI50 (COLO 205) was 30.1 µM (inactive) and the GI50 (DMS-273) was 22.1 µM (inactive). The GI50 (KM12) was 18.6 µM (inactive), the GI50 (KM-20L2) was 29.4 µM (inactive) and the GI50 (SNB-75) was 24.2 µM (inactive). For the same molecule, the GI50 (SK-MEL-2) was 28.2 µM (inactive), the GI50 (UACC-62) was 15.2 µM (inactive) and the GI50 (SF-268) was 19.8 µM (inactive). For the same molecule, the GI50 (CAKI-1) was 28.5 µM (inactive), the GI50 (SNB-19) was 40.6 µM (inactive) and the GI50 (HCT-15) was 28.1 µM. The GI50 (OVCAR-4) was 29.8 µM (inactive) and the GI50 (A498) was 15.6 µM (inactive).
